The values that follow are results of earlier work, collected in publication PMC4629110 (Acta Pharmaceutica Sinica. B, 2014).

The data set has as its system BuChE. The conditions noted are these: read-out: IC50 BuChE reported in the literature.

Broadly, the IC50 is the point on the concentration scale where inhibition reaches its midpoint. With `CC(C)NP(=O)(NC(C)C)OP(=O)(NC(C)C)NC(C)C` [ISO-OMPA, tetraisopropyl pyrophosphoramide], the IC50 is 980 nM.
